Laboratory results as given in ChEMBL document CHEMBL4420075, “Seriniquinones, melanoma-specific anticancer agents” (2016).

Columns and labels:
Assay type in all cases: functional
NCI-H23 = assay: Growth inhibition of human NCI-H23 cells assessed as cell growth incubated for 48 hrs by sulforhodamine B assay; parameters: concentration or dose not given beside the values
HT-29 = assay: Growth inhibition of human HT-29 cells assessed as cell growth incubated for 48 hrs by sulforhodamine B assay; parameters: concentration or dose not given beside the values
OVCAR-4 = assay: Growth inhibition of human OVCAR4 cells assessed as cell growth incubated for 48 hrs by sulforhodamine B assay; parameters: concentration or dose not given beside the values
ACHN = assay: Growth inhibition of human ACHN cells assessed as cell growth incubated for 48 hrs by sulforhodamine B assay; parameters: scale not given: the % may be the effect or the level left
PC-3 = assay: Growth inhibition of human PC3 cells assessed as cell growth incubated for 48 hrs by sulforhodamine B assay; parameters: concentration or dose not given beside the values
MDA-MB-231 = assay: Growth inhibition of human MDA-MB-231 cells assessed as cell growth incubated for 48 hrs by sulforhodamine B assay; parameters: concentration or dose not given beside the values
A498 = assay: Growth inhibition of human A498 cells assessed as cell growth incubated for 48 hrs by sulforhodamine B assay; parameters: concentration or dose not given beside the values
UACC-62 = assay: Growth inhibition of human UACC62 cells assessed as cell growth incubated for 48 hrs by sulforhodamine B assay; parameters: concentration or dose not given beside the values
CAKI-1 = assay: Growth inhibition of human Caki1 cells assessed as cell growth incubated for 48 hrs by sulforhodamine B assay; parameters: concentration or dose not given beside the values
SF-268 = assay: Growth inhibition of human SF268 cells assessed as cell growth incubated for 48 hrs by sulforhodamine B assay; parameters: concentration or dose not given beside the values
SNB-75 = assay: Growth inhibition of human SNB75 cells assessed as cell growth incubated for 48 hrs by sulforhodamine B assay; parameters: concentration or dose not given beside the values
HOP-62 = assay: Growth inhibition of human HOP62 cells assessed as cell growth incubated for 48 hrs by sulforhodamine B assay; parameters: concentration or dose not given beside the values
OVCAR-3 = assay: Growth inhibition of human OVCAR3 cells assessed as cell growth incubated for 48 hrs by sulforhodamine B assay; parameters: concentration or dose not given beside the values
SF-295 = assay: Growth inhibition of human SF295 cells assessed as cell growth incubated for 48 hrs by sulforhodamine B assay; parameters: concentration or dose not given beside the values
Malme-3M = assay: Growth inhibition of human MALME-3M cells assessed as cell growth incubated for 48 hrs by sulforhodamine B assay; parameters: scale not given: the % may be the effect or the level left
SK-OV-3 = assay: Growth inhibition of human SKOV3 cells assessed as cell growth incubated for 48 hrs by sulforhodamine B assay; parameters: concentration or dose not given beside the values
HCT-15 = assay: Growth inhibition of human HCT15 cells assessed as cell growth incubated for 48 hrs by sulforhodamine B assay; parameters: scale not given: the % may be the effect or the level left
DU-145 = assay: Growth inhibition of human DU145 cells assessed as cell growth incubated for 48 hrs by sulforhodamine B assay; parameters: concentration or dose not given beside the values
HOP-92 = assay: Growth inhibition of human HOP92 cells assessed as cell growth incubated for 48 hrs by sulforhodamine B assay; parameters: concentration or dose not given beside the values
SK-MEL-28 = assay: Growth inhibition of human SK-MEL-28 cells assessed as cell growth incubated for 48 hrs by sulforhodamine B assay; parameters: concentration or dose not given beside the values
SNB-19 = assay: Growth inhibition of human SNB19 cells assessed as cell growth incubated for 48 hrs by sulforhodamine B assay; parameters: concentration or dose not given beside the values
K562 = assay: Growth inhibition of human K562 cells assessed as cell growth incubated for 48 hrs by sulforhodamine B assay; parameters: concentration or dose not given beside the values
UO-31 = assay: Growth inhibition of human UO31 cells assessed as cell growth incubated for 48 hrs by sulforhodamine B assay; parameters: concentration or dose not given beside the values
MDA-MB-468 = assay: Growth inhibition of human MDA-MB-468 cells assessed as cell growth incubated for 48 hrs by sulforhodamine B assay; parameters: concentration or dose not given beside the values
786-0 = assay: Growth inhibition of human 786-0 cells assessed as cell growth incubated for 48 hrs by sulforhodamine B assay; parameters: concentration or dose not given beside the values
KM12 = assay: Growth inhibition of human KM12 cells assessed as cell growth incubated for 48 hrs by sulforhodamine B assay; parameters: concentration or dose not given beside the values
OVCAR-5 = assay: Growth inhibition of human OVCAR5 cells assessed as cell growth incubated for 48 hrs by sulforhodamine B assay; parameters: scale not given: the % may be the effect or the level left
M14 = assay: Growth inhibition of human M14 cells assessed as cell growth incubated for 48 hrs by sulforhodamine B assay; parameters: concentration or dose not given beside the values
NCI/ADR-RES = assay: Growth inhibition of human NCI/ADR-RES cells assessed as cell growth incubated for 48 hrs by sulforhodamine B assay; parameters: concentration or dose not given beside the values
UACC-257 = assay: Growth inhibition of human UACC257 cells assessed as cell growth incubated for 48 hrs by sulforhodamine B assay; parameters: concentration or dose not given beside the values
Hs-578T = assay: Growth inhibition of human Hs 578T cells assessed as cell growth incubated for 48 hrs by sulforhodamine B assay; parameters: concentration or dose not given beside the values
IGROV-1 = assay: Growth inhibition of human IGROV1 cells assessed as cell growth incubated for 48 hrs by sulforhodamine B assay; parameters: scale not given: the % may be the effect or the level left
MCF7 = assay: Growth inhibition of human MCF7 cells assessed as cell growth incubated for 48 hrs by sulforhodamine B assay; parameters: concentration or dose not given beside the values
T47D = assay: Growth inhibition of human T47D cells assessed as cell growth incubated for 48 hrs by sulforhodamine B assay; parameters: concentration or dose not given beside the values
SW-620 = assay: Growth inhibition of human SW620 cells assessed as cell growth incubated for 48 hrs by sulforhodamine B assay; parameters: concentration or dose not given beside the values
NCI-H460 = assay: Growth inhibition of human NCI-H460 cells assessed as cell growth incubated for 48 hrs by sulforhodamine B assay; parameters: concentration or dose not given beside the values
A549 = assay: Growth inhibition of human A549/ATCC cells assessed as cell growth incubated for 48 hrs by sulforhodamine B assay; parameters: concentration or dose not given beside the values
RPMI-8226 = assay: Growth inhibition of human RPMI8226 cells assessed as cell growth incubated for 48 hrs by sulforhodamine B assay; parameters: concentration or dose not given beside the values
SN12C = assay: Growth inhibition of human SN12C cells assessed as cell growth incubated for 48 hrs by sulforhodamine B assay; parameters: concentration or dose not given beside the values
TK-10 = assay: Growth inhibition of human TK10 cells assessed as cell growth incubated for 48 hrs by sulforhodamine B assay; parameters: concentration or dose not given beside the values
SR = assay: Growth inhibition of human SR cells assessed as cell growth incubated for 48 hrs by sulforhodamine B assay; parameters: concentration or dose not given beside the values
NCI-H322M = assay: Growth inhibition of human NCI-H322M cells assessed as cell growth incubated for 48 hrs by sulforhodamine B assay; parameters: scale not given: the % may be the effect or the level left
SF-539 = assay: Growth inhibition of human SF539 cells assessed as cell growth incubated for 48 hrs by sulforhodamine B assay; parameters: scale not given: the % may be the effect or the level left
OVCAR-8 = assay: Growth inhibition of human OVCAR8 cells assessed as cell growth incubated for 48 hrs by sulforhodamine B assay; parameters: concentration or dose not given beside the values
RXF 393 = assay: Growth inhibition of human RXF393 cells assessed as cell growth incubated for 48 hrs by sulforhodamine B assay; parameters: concentration or dose not given beside the values
MDA-MB-435 = assay: Growth inhibition of human MDA-MB-435 cells assessed as cell growth incubated for 48 hrs by sulforhodamine B assay; parameters: concentration or dose not given beside the values
U-251 = assay: Growth inhibition of human U251 cells assessed as cell growth incubated for 48 hrs by sulforhodamine B assay; parameters: concentration or dose not given beside the values
HL-60(TB) = assay: Growth inhibition of human HL-60(TB) cells assessed as cell growth incubated for 48 hrs by sulforhodamine B assay; parameters: concentration or dose not given beside the values
BT-549 = assay: Growth inhibition of human BT549 cells assessed as cell growth incubated for 48 hrs by sulforhodamine B assay; parameters: concentration or dose not given beside the values
COLO 205 = assay: Growth inhibition of human COLO205 cells assessed as cell growth incubated for 48 hrs by sulforhodamine B assay; parameters: concentration or dose not given beside the values
NCI-H522 = assay: Growth inhibition of human NCI-H522 cells assessed as cell growth incubated for 48 hrs by sulforhodamine B assay; parameters: concentration or dose not given beside the values
SK-MEL-5 = assay: Growth inhibition of human SK-MEL-5 cells assessed as cell growth incubated for 48 hrs by sulforhodamine B assay; parameters: concentration or dose not given beside the values
LOX IMVI = assay: Growth inhibition of human LOXIMVI cells assessed as cell growth incubated for 48 hrs by sulforhodamine B assay; parameters: concentration or dose not given beside the values
CCRF-CEM = assay: Growth inhibition of human CCRF-CEM cells assessed as cell growth incubated for 48 hrs by sulforhodamine B assay; parameters: concentration or dose not given beside the values
SK-MEL-2 = assay: Growth inhibition of human SK-MEL-2 cells assessed as cell growth incubated for 48 hrs by sulforhodamine B assay; parameters: concentration or dose not given beside the values
HCC 2998 = assay: Growth inhibition of human HCC2998 cells assessed as cell growth incubated for 48 hrs by sulforhodamine B assay; parameters: concentration or dose not given beside the values
HCT-116 = assay: Growth inhibition of human HCT116 cells assessed as cell growth incubated for 48 hrs by sulforhodamine B assay; parameters: concentration or dose not given beside the values
MOLT-4 = assay: Growth inhibition of human MOLT4 cells assessed as cell growth incubated for 48 hrs by sulforhodamine B assay; parameters: concentration or dose not given beside the values
NCI-H226 = assay: Growth inhibition of human NCI-H226 cells assessed as cell growth incubated for 48 hrs by sulforhodamine B assay; parameters: concentration or dose not given beside the values

Work on `O=c1c2ccccc2c(=O)c2c1sc1c(=O)c3ccc(CCCO)cc3c(=O)c12` yielded an Activity (NCI-H23) of -39.8%, an Activity (HT-29) of -50.87% and an Activity (OVCAR-4) of -100%. For the same compound, the Activity (ACHN) was -100%, the Activity (PC-3) was -10.27% and the Activity (MDA-MB-231) was -36.34%. It also gave an Activity (A498) of -93%, an Activity (UACC-62) of -88.56% and an Activity (CAKI-1) of -39.14%. For the same compound, the Activity (SF-268) was -52.35%, the Activity (SNB-75) was -96.48% and the Activity (HOP-62) was -100%. The Activity (OVCAR-3) was -43.56%, the Activity (SF-295) was -93.12% and the Activity (Malme-3M) was -94.59%. The Activity (SK-OV-3) was -74.3%, the Activity (HCT-15) was -68.1% and the Activity (DU-145) was -98.88%. The Activity (HOP-92) was -25.51%, the Activity (SK-MEL-28) was -91.59% and the Activity (SNB-19) was -83.74%. It also gave an Activity (K562) of -26.48%, an Activity (UO-31) of -96.45% and an Activity (MDA-MB-468) of -69.73%. For the same compound, the Activity (786-0) was -90.2%, the Activity (KM12) was -60.46% and the Activity (OVCAR-5) was -95.91%. The Activity (M14) was -94.97%, the Activity (NCI/ADR-RES) was -22.56% and the Activity (UACC-257) was -98.14%. For the same compound, the Activity (Hs-578T) was -11.73%, the Activity (IGROV-1) was -77.75% and the Activity (MCF7) was -57.56%. The Activity (T47D) was -45.39%, the Activity (SW-620) was -71.53% and the Activity (NCI-H460) was -65.79%. The Activity (A549) was -66.71%, the Activity (RPMI-8226) was -37.51% and the Activity (SN12C) was -85.36%. For the same compound, the Activity (TK-10) was -94.99%, the Activity (SR) was -22.18% and the Activity (NCI-H322M) was -96.79%. It also gave an Activity (SF-539) of -100%, an Activity (OVCAR-8) of -30.24% and an Activity (RXF 393) of -77.25%. The Activity (MDA-MB-435) was -94.78%, the Activity (U-251) was -92.1% and the Activity (HL-60(TB)) was -39.5%. The Activity (BT-549) was -95.56%, the Activity (COLO 205) was -100% and the Activity (NCI-H522) was -73.7%. The Activity (SK-MEL-5) was -100%, the Activity (LOX IMVI) was -80.49% and the Activity (CCRF-CEM) was -42.44%. The Activity (SK-MEL-2) was -72.58%, the Activity (HCC 2998) was -89.21% and the Activity (HCT-116) was -56.49%. The Activity (MOLT-4) was -48.47% and the Activity (NCI-H226) was -53.49%.
